In PMC12935919 (Frontiers in Pharmacology, 2026):

Test system: C2C12 myotubes
Assay: DEX-induced muscle atrophy model, Western blot
Format: cell-based
Settings: 10 μM DEX 24 h, alone or with 10 or 100 μM Myoki
Description: To induce C2C12 myotube differentiation, myoblasts were seeded in 6-well plates at 5 × 10^5 cells per well. Once reaching 90% confluency, they were cultured in DMEM supplemented with 2% horse serum (Thermo Fisher Scientific) and 1% penicillin-streptomycin. […] Differentiation was observed using an optical microscope (LEICA, 100×). Myotube morphology (length and diameter) was quantified in ImageJ (NIH) using the same images: myotube length was measured by tracing the long axis of each myotube (end-to-end), and myotube diameter was measured as the short-axis width at three positions along each myotube; the mean of the three width values was recorded as the diameter. For each experimental group, three randomly captured images (fields) were analyzed, and at least 15–20 myotubes per image were quantified under identical imaging settings.
Treated C2C12 cells (5 × 10^5 cells/well) were harvested in lysis buffer (Sigma-Aldrich, 2910) and centrifuged at 12,000 g for 10 min; proteins in the supernatant were collected. Protein concentrations were measured using the BCA Protein Assay Kit (Thermo Fisher Scientific). Each 20 μg sample was separated using 10% SDS–PAGE and transferred onto a polyvinylidene fluoride membrane (Millipore, Burlington, MA, USA). Non-specific binding was blocked with 5% non-fat dry milk for 1 h. The membranes were incubated overnight with primary antibodies: Anti-Myf5 (Abcam, ab125078), Anti-Myf6 (Abcam, ab182842), Anti-MyoD (Santa Cruz, sc-377460), Anti-MyoG (Santa Cruz, sc-52903), Anti-α-actinin (Santa Cruz, sc-17829), Anti-MYH3 (Santa Cruz, sc-53091), Anti-p-mTOR (Ser2448) (CST, #5536), Anti-p-Akt (Ser473) (CST, #9271), Anti-p-p70 S6 Kinase (Thr389) (CST, #9205), Anti-myostatin (Abcam, ab124721), Anti-atrogin-1/MAFbx (Santa Cruz, sc-166806), and Anti-MuRF1 (Santa Cruz, sc-398608). Membranes were then incubated for 1 h with HRP-conjugated secondary antibodies. Blot images were captured with the ECL system (Amersham, UK) and quantified using ImageJ.

Which results are given for `C[C@@H]1C[C@H]2[C@@H]3CCC4=CC(=O)C=C[C@]4(C)[C@@]3(F)[C@@H](O)C[C@]2(C)[C@@]1(O)C(=O)CO` [DEX, dexamethasone, reference compound]?
MuRF1 expression: significant increase; atrogin-1/MAFbx expression: significant increase; expression levels of differentiated muscle fiber structural proteins: significantly reduced; phosphorylation levels of muscle growth signaling proteins (Akt, mTOR, p70S6K): significantly reduced
